Results from a melting point compilation (Tetko et al.; mined from patent text by program, amines drawn as free bases though some values may be those of a salt).

| Compound | melting point |
| --- | --- |
| CCOC(=O)c1nc(NC)sc1-c1nc2ccc(C)cn2c1C | 225 to 227 °C |
| Cc1cccc(-c2cc(=O)c(C)c(-c3ccccc3)n2-c2ccccc2F)c1 | 211 to 214 °C |
| O=C1c2c(Cl)ccc(Cl)c2C(=O)N1CCN1CCC(c2noc3cc(F)ccc23)CC1 | 163 to 164 °C |
| CC(C)(C)c1ccc2c(c1)C(C(=O)O)=Cc1ccccc1O2 | 72 °C |
| O=C(O)Cn1cc(Cl)cnc1=O | 186 to 188 °C |
| CCCCCCNC(=O)Nc1ccccc1C(=O)NCCC1CCN(C(c2ccccc2)c2ccccc2)CC1 | 143 to 144 °C |
| Oc1ccc(CCNC[C@H](O)COc2ccccc2)cc1 | 118 to 119 °C |
| CC(O)c1cc2c(s1)C(C)(C)CCC2(C)C (stereo unspecified) | 53 to 55 °C |
| COc1cc2c(c(Cl)c1Cl)C(=O)C(C)(C)C2c1ccccc1 (stereo unspecified) | 146 to 148 °C |
| CCOC(=O)c1cc2ccc(Cl)nc2[nH]1 | 144 to 145 °C |
| Cc1nc2ccc3c(c2o1)C(=CC#N)CC3 | 180 to 182 °C |
| CN1CCc2ccccc2C(c2ccccc2)C1(C)C (stereo unspecified) | 92 to 93 °C |
| Cn1c(C(F)(F)F)cc(=O)n(-c2ccc(OCc3ccc(Cl)cc3)cc2)c1=O | 167 to 169 °C |
| NC(=O)N(O)Cc1ccc(C(O)C#Cc2ccsc2)cc1 (stereo unspecified) | 117 to 119 °C |
| C#CCCCc1c2c(nn1CCC)c(N)nc1ccccc12 | 144 to 145 °C |
| CCCCCCCCCCN(O)C(=O)N(C)C | 44 to 45 °C |
| CON=C1CC(=NOC)c2ccccc2-c2ccccc21 | 130 °C |
| Cc1cc(-c2cc(C(=O)O)c(=O)n(CC=Cc3ccccc3)n2)ccc1F | 143 to 144 °C |
| COc1cc(COc2nn(-c3ccccc3)cc2/C=C/c2nc(C(=O)O)cs2)ccc1OCc1nc(-c2ccco2)oc1C | 170 to 172 °C |
| O=C(OC1CCCCCC1=O)c1ccccc1 (stereo unspecified) | 59 to 60 °C |
| COC(=O)c1cc(C(=O)NCCN(C)C)c2cc(Cc3ccc(F)cc3)cnc2c1O | 115 to 116 °C |
| Nc1cc2[nH]c(=O)[nH]c2c2ccccc12 | 295 to 296 °C |
| CC(C)(O)CCCCC(C)(C)O | 87 °C |
| Cc1oc(-c2ccccc2)nc1COc1ccc(CON=C(CCCCC(=O)NS(C)(=O)=O)c2ccccc2)cc1 | 130 to 132 °C |
| Cc1nc2cc(NC(=O)c3cc4cccnc4n3-c3ccncc3)ccc2s1 | 236 to 238 °C |
| CC(=O)OC1CSC(Oc2ccc3c(c2)nnn3C)C(OC(C)=O)C1OC(C)=O (stereo unspecified) | 80 °C |

| Compound | melting point |
| --- | --- |
| COC(=O)CC1(c2c(C)c(OC)c(C)c(C)c2OC)C=CC2=NCOC2=C1 (stereo unspecified) | 68 to 69 °C |
| O=C1N=C(N2CCCC2)SC1=Cc1ccc(-c2cc(F)c(O)c(C34CC5CC(CC(C5)C3)C4)c2)s1 | 312 to 315 °C |
| CC(C)(C)c1ccc(/C=C/C(=O)Nc2ccc3c(c2)CCCC3)cc1 | 198 to 199 °C |
| CC(CN1CCCC1)N1c2ccc(Cl)cc2Sc2ccc(C3=NC4CCCCC4N3)cc21 (racemic) | 120 °C |
| COCCOc1nc(Nc2cccc(NS(C)(=O)=O)c2)nc2[nH]cnc12 | 201 to 204 °C |
| O=C(C=Cc1ccc(C(F)(F)F)cc1)N1CCC(O)CC1 | 124 to 135 °C |
| O=C(NC(=O)c1c(Cl)cccc1Cl)Nc1noc(-c2ccc(C(F)(F)F)cc2)c1Cl | 237 to 238 °C |
| Cc1c(-c2ccccc2)sc2nc(N3CCOCC3)[nH]c(=O)c12 | 300 to 320 °C |
| CCCn1c(=O)c2[nH]c(C3CC4COCC4C3)nc2n(CCC)c1=O (stereo unspecified) | 226 to 230 °C |
| Cc1ccccc1Cc1ccc(C(=O)O)o1 | 136 to 138 °C |
| COc1cc(OC)c2c(=O)[nH]c(-c3cc(C)c(OC)c(C)c3)cc2n1 | 262 to 263 °C |
| Cc1ccc(C(=O)NN2CCOCC2)c(Nc2ccc3[nH]ncc3c2)n1 | 257 to 260 °C |
| COc1ccc(Cn2c(=O)c3cccnc3n(CCCCl)c2=O)cc1 | 114 to 115 °C |
| CC(CC1CCCCC1)N(C)C(=O)COCC(=O)O (stereo unspecified) | 90 to 91 °C |
| CC(C)Oc1cc(NC(=O)C2=C(C(=O)N(C)C)CCCC2)ccc1Br | 137 to 138 °C |
| O=C(OC(c1ccccc1)c1ccccc1)C(OC(=S)n1ccnc1)c1ccccc1 (stereo unspecified) | 109 to 110 °C |
| CCCCCC(=O)OC(C)OC1=C(C(=O)Nc2ccccn2)N(C)S(=O)(=O)c2ccccc21 (stereo unspecified) | 62 to 65 °C |
| NS(=O)(=O)c1cccc2ccccc12 | 152 to 153 °C |
| COc1cc2c(cc1Nc1ncc(Cl)c(Nc3cccnc3OC)n1)CCN(CC(=O)N(C)C)CC2 | 68 to 76 °C |
| Cc1nnc2n1-c1ccccc1C(c1ccc(Cl)cc1)=NC2NN(C(=O)NN)c1ccccc1 (stereo unspecified) | 175 to 177 °C |
| Cc1ccc(C(C)(C)C)c(O)c1C(=O)Oc1ccccc1 | 71 to 72 °C |
| Cc1nc2cccc(N)c2c(=O)n1C1CCC(=O)NC1=O (stereo unspecified) | 293 to 295 °C |
| N#Cc1c(Br)c(Br)n(Cc2ccccc2)c1-c1ccc(C(F)(F)F)cc1 | 145 to 147 °C |
| Cc1ccc(S(=O)(=O)C(=[N+]=[N-])C(=O)C(C)(C)C)cc1 | 120 to 122 °C |
| CCOC(=O)n1c(SCc2nccc(SCCN3CCOCC3)c2C)nc2ccccc21 | 145 to 147 °C |
